We go through four compounds from ChEMBL document CHEMBL6083240, “Design, synthesis and biological evaluation of arylpropylamine derivatives as potential multi-target antidepressants” (Bioorg Med Chem, 2024).

pKi: −log10 of the molar value. The source made the active and inactive calls. No cut-off for these calls is given here.

Data set [1] can be described thus: Acute toxicity in po dosed Sprague-Dawley rat assessed as mortality rate measured after 24 hrs. It is filed as organism-based. The conditions noted are these: in vivo.
The target of data set [2] is 5-hydroxytryptamine receptor 2A (Rattus norvegicus, UniProt P14842). Nature of the data set: Displacement of [3H]-ketanserin from 5-HT2A in rat cerebral cortex incubated for 15 mins by liquid scintillation counting method. It is filed as tissue-based. (In general: Loss of bound radioactivity is the signal in a displacement assay; it reports binding, not function.)
Chain of 5-hydroxytryptamine receptor 2A (P14842 whole entry): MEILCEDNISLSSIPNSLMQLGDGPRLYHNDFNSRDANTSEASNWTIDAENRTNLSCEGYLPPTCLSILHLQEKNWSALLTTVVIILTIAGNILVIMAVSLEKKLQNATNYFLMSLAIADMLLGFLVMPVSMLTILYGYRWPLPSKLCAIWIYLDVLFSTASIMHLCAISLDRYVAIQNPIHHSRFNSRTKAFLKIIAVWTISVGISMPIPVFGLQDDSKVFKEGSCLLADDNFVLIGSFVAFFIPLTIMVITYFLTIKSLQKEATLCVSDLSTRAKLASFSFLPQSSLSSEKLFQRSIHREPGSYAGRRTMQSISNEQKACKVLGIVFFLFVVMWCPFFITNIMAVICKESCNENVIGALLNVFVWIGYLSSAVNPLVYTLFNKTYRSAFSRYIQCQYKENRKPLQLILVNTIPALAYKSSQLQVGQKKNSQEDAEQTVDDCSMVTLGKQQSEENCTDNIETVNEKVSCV
In data set [3] the target is T1, 5-hydroxytryptamine receptor 2C (Rattus norvegicus, UniProt P08909).
T1 sequence (P08909 whole entry): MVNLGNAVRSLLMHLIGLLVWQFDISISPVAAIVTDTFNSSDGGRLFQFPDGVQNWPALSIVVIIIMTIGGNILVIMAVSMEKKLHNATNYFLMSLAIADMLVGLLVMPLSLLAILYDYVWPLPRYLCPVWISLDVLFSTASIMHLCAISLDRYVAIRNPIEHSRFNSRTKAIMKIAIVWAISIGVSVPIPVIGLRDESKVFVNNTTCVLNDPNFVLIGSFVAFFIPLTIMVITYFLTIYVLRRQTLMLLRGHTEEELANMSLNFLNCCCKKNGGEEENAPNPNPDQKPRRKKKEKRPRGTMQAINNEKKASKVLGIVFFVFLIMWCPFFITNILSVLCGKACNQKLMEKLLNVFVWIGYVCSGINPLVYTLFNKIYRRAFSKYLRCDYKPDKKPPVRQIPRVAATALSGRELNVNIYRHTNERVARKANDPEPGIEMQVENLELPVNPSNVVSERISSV
Description: Displacement of [3H]-mesulergine from 5-HT2C in rat cerebral cortex incubated for 15 mins by liquid scintillation counting method. It is filed as tissue-based.

Data set [4] has as its target T2, Alpha-1A adrenergic receptor (Rattus norvegicus, UniProt P43140).
T2 sequence (P43140 whole entry): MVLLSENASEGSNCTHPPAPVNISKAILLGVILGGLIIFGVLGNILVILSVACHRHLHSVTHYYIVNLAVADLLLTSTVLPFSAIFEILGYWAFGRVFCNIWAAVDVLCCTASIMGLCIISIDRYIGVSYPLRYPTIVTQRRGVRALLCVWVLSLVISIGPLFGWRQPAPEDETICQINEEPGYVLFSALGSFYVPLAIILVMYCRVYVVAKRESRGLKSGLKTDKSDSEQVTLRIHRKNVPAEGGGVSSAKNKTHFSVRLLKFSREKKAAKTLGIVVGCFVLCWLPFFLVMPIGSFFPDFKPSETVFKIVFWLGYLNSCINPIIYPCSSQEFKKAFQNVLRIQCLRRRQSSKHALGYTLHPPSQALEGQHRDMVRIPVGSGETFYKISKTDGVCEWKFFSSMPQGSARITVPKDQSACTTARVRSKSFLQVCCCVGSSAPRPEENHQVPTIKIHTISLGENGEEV
Nature of the data set: Displacement of [3H]-prazosin from adrenergic alpha-1 receptor in rat cerebral cortex incubated for 60 mins by liquid scintillation counting method. It is filed as toxicity, tissue-based.

The subject of a further data set is histamine H1 receptor. Description: Displacement of [3H]-pyrilamine from H1 receptor in guinea pig cerebellum membrane incubated for 60 mins by liquid scintillation counting method. It is filed as toxicity, cell membranes, Cavia porcellus. As to conditions: probe [3H]-pyrilamine.
The subject of data set [5] is Mus musculus. Description: Antidepressant activity in IG dosed Kunming mouse assessed as decrease in immobility time by measuring minimal effective dose by forced swimming test. It is filed as functional.
Data set [6] deals with Mus musculus. Description: Antidepressant activity in IG dosed Kunming mouse assessed as decrease in immobility time by measuring minimal effective dose by tail suspension test. It is filed as functional.
Data set [7] can be described thus: In vivo inhibition of 5-HT2A in po dosed DOI-induced Kunming mouse assessed as reduction in head twitch response pretreated for 60 mins followed by DOI induction and measured for 20 mins. It is filed as functional. As to conditions: 1.333 h, time 80 min.
A further data set has as its target Transporter (Rattus norvegicus, UniProt Q63380). Nature of the data set: Binding affinity to rat NET.
A further data set has as its system Rattus norvegicus. Nature of the data set: Antidepressant activity against ACTH-induced treatment resistant depression in Sprague-Dawley rat model assessed as reduction in immobility time at 30 mg/kg, ip by forced swimming test. It is filed as functional, organism-based.
The test system of data set [8] is Mus musculus. Nature of the data set: Antidepressant activity in Kunming mouse chronic unpredictable mild stress model assessed as increase in sucrose preference at 20 mg/kg, IG measured after 1 to 3 weeks. It is filed as functional, organism-based. The conditions noted are these: time 1-3 weeks.

Chain of Transporter (Q63380 whole entry): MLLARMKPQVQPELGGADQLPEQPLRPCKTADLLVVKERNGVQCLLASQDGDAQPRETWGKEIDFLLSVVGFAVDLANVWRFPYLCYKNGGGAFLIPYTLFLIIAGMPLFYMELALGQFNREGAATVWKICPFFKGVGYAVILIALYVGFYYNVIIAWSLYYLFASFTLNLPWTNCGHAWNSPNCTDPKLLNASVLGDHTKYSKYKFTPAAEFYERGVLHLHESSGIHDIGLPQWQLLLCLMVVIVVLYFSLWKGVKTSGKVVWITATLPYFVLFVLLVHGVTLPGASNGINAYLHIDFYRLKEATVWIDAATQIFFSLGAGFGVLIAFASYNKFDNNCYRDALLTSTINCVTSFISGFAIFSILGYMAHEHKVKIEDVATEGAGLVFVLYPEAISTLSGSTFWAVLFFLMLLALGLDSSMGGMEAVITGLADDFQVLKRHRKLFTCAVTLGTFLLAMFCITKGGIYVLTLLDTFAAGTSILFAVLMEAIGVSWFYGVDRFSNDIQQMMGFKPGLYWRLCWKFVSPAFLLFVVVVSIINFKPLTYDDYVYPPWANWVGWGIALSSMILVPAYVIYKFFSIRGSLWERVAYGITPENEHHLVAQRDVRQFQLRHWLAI

Turning to `CNCC[C@H](Oc1cccc2ccccc12)c1cccs1` [DULOXETINE], the LD50 (usually the dose at which mortality reaches 50%) at 24 h in [1] is 279 mg/kg. The results for the negative logarithm of the Ki (pKi) in data set [2], in data set [3] and in data set [4] were 5.91, 5.61 and 5.99, respectively. Also, the affinity in the data set with histamine H1 receptor, expressed as Ki at 60 min, was 1270 nM. In addition, the Activity entry with Mus musculus [5] and with Mus musculus [6] was “Dose-dependent-effect” in each case. In addition, the minimal effective dose in the data set with Mus musculus [5] (po, read-out: MED) is 16 mg/kg; in the data set with Mus musculus [6] (po, read-out: MED) it was 16 mg/kg. In addition, the 50% effective dose (ED50) (usually the dose that gives a 50% effect, or the effect in half of the subjects) in data set [7] was 30.9 mg/kg.

Turning to `CCc1nn(CCCN2CCN(c3cccc(Cl)c3)CC2)c(=O)n1CCOc1ccccc1` [NEFAZODONE], the pKi – broadly, the negative decadic logarithm of the Ki, by convention in mol/L – on Transporter was 6.26.

Consider `Fc1ccc([C@@H]2CCNC[C@H]2COc2ccc3c(c2)OCO3)cc1`, for which the outcome in the data set with Rattus norvegicus was inactive.

For the compound `CNCCC(Oc1ccc(C(F)(F)F)cc1)c1ccccc1` (stereo not drawn), the result with Mus musculus [8] was inactive.
